Values after ≈ are worked out from the molar mass of the structure shown.
Columns and labels:
Assay in all cases: ≥ marks a high value that may be exact or a test limit, other limits are often not marked, values filed in µg/mL are converted to µM
[1] = system: Escherichia coli CGSC 4908
[2] = system: Pseudomonas aeruginosa K799
Candida albicans C627 = system: Candida albicans C627
[3] = system: Pseudomonas aeruginosa Z61
[4] = system: Aeromonas salmonicida 99-1
[5] = system: Staphylococcus aureus C623
[6] = system: Aeromonas salmonicida 97-4
Escherichia coli UB1005 = system: Escherichia coli UB1005
Escherichia coli DC2 = system: Escherichia coli DC2
[7] = system: Salmonella enterica serovar typhimurium MS7953s
[8] = system: Staphylococcus epidermidis C621
[9] = system: Salmonella enterica subsp. enterica serovar Typhimurium ATCC 14028s
Escherichia coli MC1061 = system: Escherichia coli MC1061
Escherichia coli O157:H7 = system: Escherichia coli O157:H7
Escherichia coli JW0013 = system: Escherichia coli JW0013
Escherichia coli JJ2487 = system: Escherichia coli JJ2487
Escherichia coli J2210 = system: Escherichia coli J2210
[10] = system: Salmonella enterica subsp. enterica serovar Enteritidis MH91989
[11] = system: Salmonella typhimurium SL1344
Salmonella enterica = system: Salmonella enterica
Enterococcus faecium = system: Enterococcus faecium
[12] = system: Lactobacillus delbrueckii subsp. bulgaricus
Citrobacter koseri = system: Citrobacter koseri
Pseudomonas aeruginosa = system: Pseudomonas aeruginosa
Escherichia coli JM109 = system: Escherichia coli JM109
[13] = system: Staphylococcus aureus CCRC 15211
[14] = system: Salmonella typhimurium CCRC 12947
Staphylococcus xylosus = system: Staphylococcus xylosus
[15] = system: Vibrio parahaemolyticus CCRC 10806
Escherichia coli BL21 = system: Escherichia coli BL21
[16] = system: Bifidobacterium adolescentis
[17] = system: Staphylococcus aureus CCRC 12652
[18] = system: Klebsiella pneumoniae CCRC 10694
[19] = system: Candida parapsilosis CGMCC 2.3989
[20] = system: Candida tropicalis CGMCC 2.1975
[21] = system: Pseudomonas aeruginosa ATCC 27853
[22] = system: Staphylococcus aureus ATCC 25923
Escherichia coli K88 = system: Escherichia coli K88
[23] = system: Escherichia coli ATCC 25922
[24] = system: Candida albicans CGMCC 2.2086
Escherichia coli K99 = system: Escherichia coli K99
[25] = system: Staphylococcus epidermidis ATCC 12228
[26] = system: Staphylococcus aureus ATCC 43300
[27] = system: Staphylococcus aureus ATCC 29213
[28] = system: Salmonella enterica subsp. enterica serovar Typhimurium C77-31
Escherichia coli 078 = system: Escherichia coli 078
[29] = system: Salmonella enterica subsp. enterica serovar Typhimurium ATCC 14028

## CC(=O)[C@H](CC(C)C)NC(=O)[C@H](Cc1ccc(O)cc1)NC(=O)[C@H](Cc1cnc[nH]1)NC(=O)[C@H](CC(=O)O)NC(=O)[C@H](CC(C)C)NC(=O)[C@H](C)NC(=O)[C@H](CC(C)C)NC(=O)CNC(=O)CNC(=O)[C@@H](NC(=O)[C@@H](NC(=O)[C@H](CCCCN)NC(=O)CNC(=O)[C@@H](NC(=O)[C@H](CCCCN)NC(=O)[C@H](CCCCN)NC(=O)[C@H](C)NC(=O)[C@H](CCCCN)NC(=O)[C@H](CCCNC(=N)N)NC(=O)[C@H](Cc1ccccc1)NC(=O)[C@@H](NC(=O)[C@H](CO)NC(=O)[C@H](CCCCN)NC(=O)[C@H](Cc1c[nH]c2ccccc12)NC(=O)CN)C(C)C)C(C)C)[C@@H](C)O)C(C)C [GWKSVFRKAKKVGKTVGGLALDHYL]
[1]
  MIC: 1.45 µM (≈ 4 µg/mL)
[2]
  MIC: 11.6 µM (≈ 32 µg/mL)
Candida albicans C627
  MIC: 11.6 µM (≈ 32 µg/mL)
[3]
  MIC: 1.45 µM (≈ 4 µg/mL)
[4]
  MIC: 2.9 µM (≈ 7.99 µg/mL)
[5]
  MIC: 23.2 µM (≈ 64 µg/mL)
[6]
  MIC: 2.9 µM (≈ 7.99 µg/mL)
Escherichia coli UB1005
  MIC: 5.8 µM (≈ 16 µg/mL)
Escherichia coli DC2
  MIC: 1.45 µM (≈ 4 µg/mL)
[7]
  MIC: 1.45 µM (≈ 4 µg/mL)
[8]
  MIC: 23.2 µM (≈ 64 µg/mL)
[9]
  MIC: 11.6 µM (≈ 32 µg/mL)

## CC[C@H](C)[C@H](NC(=O)[C@H](CCCN=C(N)N)NC(=O)[C@H](CCCN=C(N)N)NC(=O)[C@@H]1CCCN1C(=O)[C@@H]1CCCN1C(=O)[C@H](CCCN=C(N)N)NC(=O)[C@@H]1CCCN1C(=O)[C@H](CCCN=C(N)N)NC(=O)[C@@H]1CCCN1C(=O)[C@H](CC(C)C)NC(=O)[C@H](Cc1ccc(O)cc1)NC(=O)[C@@H]1CCCN1C(=O)[C@H](CCCN=C(N)N)NC(=O)[C@H](CCCCN)NC(=O)[C@H](CC(=O)O)NC(=O)[C@@H](N)C(C)C)C(=O)N[C@@H](Cc1ccc(O)cc1)C(=O)N[C@@H](CC(N)=O)C(=O)N[C@@H](CCCN=C(N)N)C(N)=O [VDKRPYLPRPRPPRRIYNR]
Escherichia coli MC1061
  MIC: 0.122 µM (≈ 0.3 µg/mL)
Escherichia coli O157:H7
  MIC: 0.98 µM (≈ 2.4 µg/mL)
Escherichia coli JW0013
  MIC: 0.339 µM (≈ 0.83 µg/mL)
Escherichia coli JJ2487
  MIC: 0.159 µM (≈ 0.39 µg/mL)
Escherichia coli J2210
  MIC: 0.245 µM (≈ 0.6 µg/mL)
[10]
  MIC: 0.245 µM (≈ 0.6 µg/mL)
[11]
  MIC: 0.245 µM (≈ 0.6 µg/mL)

## CC[C@H](C)[C@H](NC(=O)[C@H](CC(N)=O)NC(=O)[C@H](CCCCN)NC(=O)[C@H](CC(C)C)NC(=O)[C@H](CCCCN)NC(=O)[C@@H](N)CC(C)C)C(=O)N[C@H](C(=O)N[C@@H](CO)C(=O)N[C@@H](Cc1c[nH]c2ccccc12)C(=O)N[C@@H](C)C(=O)N[C@@H](CCCCN)C(=O)N[C@@H](CCCCN)C(=O)N[C@H](C(=O)N[C@@H](CC(C)C)C(N)=O)C(C)C)C(C)C [LKLKNIVSWAKKVL]
Salmonella enterica
  MIC: 19.5 µM (≈ 32 µg/mL)
Enterococcus faecium
  MIC: ≥ 78 µM
[12]
  MIC: ≥ 78 µM
Citrobacter koseri
  MIC: 2.44 µM (≈ 4 µg/mL)
Pseudomonas aeruginosa
  MIC: 39 µM (≈ 64 µg/mL)
Escherichia coli JM109
  MIC: 1.22 µM (≈ 2 µg/mL)
[13]
  MIC: 19.5 µM (≈ 32 µg/mL)
[14]
  MIC: 19.5 µM (≈ 32 µg/mL)
Staphylococcus xylosus
  MIC: 0.61 µM (≈ 0.999 µg/mL)
[15]
  MIC: 9.76 µM (≈ 16 µg/mL)
Escherichia coli BL21
  MIC: 4.88 µM (≈ 8 µg/mL)
[16]
  MIC: ≥ 78 µM
[17]
  MIC: 13.8 µM (≈ 22.6 µg/mL)
[18]
  MIC: ≥ 39 µM

## CC[C@H](C)[C@H](NC(=O)[C@H](CO)NC(=O)[C@H](CCCCN)NC(=O)[C@H](CC(C)C)NC(=O)[C@H](CCCCN)NC(=O)[C@@H](N)CC(C)C)C(=O)N[C@H](C(=O)N[C@@H](CO)C(=O)N[C@@H](Cc1ccc(O)cc1)C(=O)N[C@@H](C)C(=O)N[C@@H](CCCCN)C(=O)N[C@@H](CCCCN)C(=O)N[C@H](C(=O)N[C@@H](CC(C)C)C(N)=O)C(C)C)C(C)C [LKLKSIVSYAKKVL]
Salmonella enterica
  MIC: ≥ 80.5 µM
Enterococcus faecium
  MIC: ≥ 80.5 µM
[12]
  MIC: ≥ 80.5 µM
Citrobacter koseri
  MIC: 5.03 µM (≈ 8 µg/mL)
Pseudomonas aeruginosa
  MIC: 80.5 µM (≈ 128 µg/mL)
Escherichia coli JM109
  MIC: 1.26 µM (≈ 2 µg/mL)
[13]
  MIC: ≥ 80.5 µM
[14]
  MIC: ≥ 80.5 µM
Staphylococcus xylosus
  MIC: 0.629 µM (≈ 0.999 µg/mL)
[15]
  MIC: ≥ 40.3 µM
Escherichia coli BL21
  MIC: 10.1 µM (≈ 16 µg/mL)
[16]
  MIC: ≥ 80.5 µM
[17]
  MIC: ≥ 80.5 µM
[18]
  MIC: ≥ 80.5 µM

## CC[C@H](C)[C@H](NC(=O)[C@H](CCCCN)NC(=O)[C@H](C)NC(=O)[C@H](C)N)C(=O)N[C@H](C(=O)N[C@@H](CC(C)C)C(=O)N[C@@H](CC(N)=O)C(=O)N1CCC[C@H]1C(=O)N[C@@H](CCCCN)C(=O)N[C@@H](Cc1ccccc1)C(=O)N[C@@H](CCCN=C(N)N)C(N)=O)[C@@H](C)CC [AAKIILNPKFR]
[19]
  MIC: ≥ 128 µM
[20]
  MIC: ≥ 128 µM
[21]
  MIC: > 128 µM
[22]
  MIC: > 128 µM
Escherichia coli K88
  MIC: ≥ 128 µM
[23]
  MIC: > 128 µM
[24]
  MIC: ≥ 128 µM
Escherichia coli K99
  MIC: ≥ 128 µM
[25]
  MIC: > 128 µM
Escherichia coli UB1005
  MIC: ≥ 128 µM
[26]
  MIC: > 128 µM
[27]
  MIC: > 128 µM
[28]
  MIC: ≥ 128 µM
Escherichia coli 078
  MIC: ≥ 128 µM
[29]
  MIC: > 128 µM

## CC[C@H](C)[C@H](NC(=O)[C@H](CCCCN)NC(=O)CNC(=O)[C@@H](NC(=O)[C@H](Cc1cnc[nH]1)NC(=O)[C@H](Cc1cnc[nH]1)NC(=O)[C@@H](NC(=O)CNC(=O)[C@H](Cc1cnc[nH]1)NC(=O)[C@H](Cc1ccccc1)NC(=O)[C@H](CC(C)C)NC(=O)[C@H](CC(C)C)NC(=O)[C@H](CCCNC(=N)N)NC(=O)[C@H](Cc1ccccc1)NC(=O)[C@@H](N)Cc1ccccc1)C(C)C)C(C)C)C(=O)N[C@@H](CCCCN)C(=O)N1CCC[C@H]1C(=O)N[C@@H](CCCNC(=N)N)C(=O)N[C@@H](C)C(C)=O [FFRLLFHGVHHVGKIKPRA]
[1]
  MIC: 14.2 µM (≈ 32 µg/mL)
[2]
  MIC: 14.2 µM (≈ 32 µg/mL)
Candida albicans C627
  MIC: 28.3 µM (≈ 63.9 µg/mL)
[3]
  MIC: 3.54 µM (≈ 7.99 µg/mL)
[4]
  MIC: 28.3 µM (≈ 63.9 µg/mL)
[5]
  MIC: 28.3 µM (≈ 63.9 µg/mL)
[6]
  MIC: 14.2 µM (≈ 32 µg/mL)
Escherichia coli UB1005
  MIC: 14.2 µM (≈ 32 µg/mL)
Escherichia coli DC2
  MIC: 14.2 µM (≈ 32 µg/mL)
[7]
  MIC: 7.08 µM (≈ 16 µg/mL)
[8]
  MIC: 14.2 µM (≈ 32 µg/mL)
[9]
  MIC: 28.3 µM (≈ 63.9 µg/mL)
